“Also recorded” adds a separate entry of the source.
How the values were obtained:
Type in all cases: in vivo, mouse
[1] = system: MEXF 276 human melanoma tumor explant xenograft; assay: MEXF 276 human melanoma tumor explant xenograft study, tumor volume and plasma MIA ELISA; settings: for tumor growth inhibition: day 20; for Tumor Volume: day 20, mean ± SE
Description: (§1) MIA ELISA Assay: Equal numbers of human melanoma and colorectal carcinoma cells (˜250,000 cells for each cell line) were seeded onto tissue culture plates and the culture medium for each cell line was collected 48 hr later. Levels of MIA in culture media or plasma were measured by a commercial single-step ELISA kit according to the manufacturer's protocol (Roche Diagnostics Corporation, Indianapolis, Ind.). MIA concentrations in test samples were calculated using a standard curve ranging from 3-37 ng/ml. When the MIA concentration exceeded the highest standard concentration, the samples were diluted 1:5 and assayed again to have the results fall within the linear range of the standard curve. Data were evaluated using the Student t-test (two-tailed distribution, two-sample unequal variance), using P≦0.05 as the level of significance.
(§2) An MEXF 276 human melanoma tumor explant xenograft study and an MEXF1341 human melanoma tumor explant xenograft study were carried out as follows. The MEXF 276 human melanoma tumor cells and the MEXF1341 human melanoma tumor explant cells were originally derived from surgical specimens isolated from different melanoma patients (obtained from Oncotest GmbH, Institute for Experimental Oncology, Frieburg, Germany) and propagated as xenografts in nude mice. After removal of tumors from donor mice, samples were cut into fragments (1-2 mm diameter) and placed in RPMI 1640 medium before subcutaneous implantation into recipient male NMRI nu/nu mice (6-8 weeks old). Dosing typically began when tumors reached an average size of 6-8 mm in diameter. Animals were maintained under clean-room conditions in sterile filter-top cages and received sterile rodent chow and water ad libitum.
In a second experiment, MEXF 276 human melanoma tumor-bearing mice were randomized and dosed orally with CHIR-265 (100 or 10 mg/kg) or sorafenib (100 mg/kg) n=4/group. The first day of dosing was designated as Day 0. As such, the dosing schedule for CHIR-265 was 10 mg/kg on Day 0, 2, 4, 6, 14, 16 and 20. For CHIR-265 the dosing schedule was 100 mg/kg on Day 0, 2, 14, 16 and 20. Finally, the dosing schedule for sorafenib and PEG400 vehicle was 100 mg/kg every day on Day 0-20. […] Plasma samples were collected 4 hr after the last dose on Day 20 and stored at −80° C. prior to MIA analysis. MIA plasma levels were determined by an ELISA assay carried out as described in EXAMPLE 1.

[2] = system: MEXF 1341 human melanoma tumor explant xenograft; assay: MEXF 1341 human melanoma tumor explant xenograft study, tumor volume and plasma MIA ELISA; settings: for tumor growth inhibition, significance vs. vehicle: MEXF 1341 (text prints MEXF 276), P>0.08 v. vehicle; for tumor growth inhibition, significance vs. vehicle / Tumor Volume: day 20; for Tumor Volume: mean ± SE
Description: as §1, §2
In a third experiment, MEXF 1341 human melanoma tumor-bearing mice were randomized and dosed orally with CHIR-265 (100 or 10 mg/kg) or sorafenib (100 mg/kg) n=4/group. The first day of dosing was designated as Day 0. As such, the dosing schedule for CHIR-265 (10 mg/kg) was 10 mg/kg on Day 0, 2, 4, 6, 14, 16 and 20. For CHIR-265 (100 mg/kg) the dosing schedule was 100 mg/kg on Day 0, 2, 14, 16 and 20. Finally, the dosing schedule for sorafenib and PEG400 vehicle was 100 mg/kg every day on Day 0-20. […] Plasma samples were collected 4 hr after the last dose on Day 20 and stored at −80° C. prior to MIA analysis. MIA plasma levels were determined by an ELISA assay carried out as described in EXAMPLE 1.

[3] = system: A375M human melanoma xenograft; assay: Kinetics of plasma MIA and tumor volume in A375M tumor-bearing mice (Example 3)
Description: as §1
(§3) An A375 human melanoma xenograft study was carried out with female athymic nu/nu mice (8-12 weeks old) purchased from Charles River Laboratories (Wilmington, Mass.). Approximately 2.5×10^6 cells were implanted subcutaneously (s.c.) into the hind flank region of mice. Plasma samples were collected when tumors reached an average size of 250 mm^3 (n=10) and stored at −80° C. prior to MIA analysis. Dosing typically began when tumors reached an average size of 250 mm^3. Caliper measurements were performed twice weekly to estimate tumor volume using the formula: (a×b^2)×0.5, where “a” is the largest diameter and “b” is the length perpendicular to the diameter.
Methods: The kinetics of MIA concentrations in plasma following drug treatment were investigated as follows. A375M tumor-bearing mice were dosed orally either with CHIR-265 (100 mg/kg), CHIR-258 (60 mg/kg) or vehicle (n=10/group). Plasma samples were collected before dosing was initiated, and again on day 3, 8 and 13. Tumor volumes were measured at the same time points, using methods described in EXAMPLE 2.

[4] = system: A375M human melanoma xenograft; assay: A375M human melanoma xenograft study, tumor volume and plasma MIA ELISA (Example 2)
Description: as §1, §3
In a first experiment, A375M human melanoma tumor-bearing mice (n=5) were randomized and dosed orally with CHIR-265 at 100 mg/kg (n=5) or vehicle (n=5) once every other day. Tumor-bearing animals treated with PEG400 buffer alone were used as vehicle control. […] Plasma samples were collected 48 hours post the fourth dose (day 10) for MIA analysis by ELISA.

[5] = system: CHL-1 human melanoma xenograft; assay: CHL-1 human melanoma xenograft study, tumor volume and plasma MIA ELISA (Example 4)
Description: as §1
A CHL-1 human melanoma xenograft study was carried out with female athymic nu/nu mice (8-12 weeks old) purchased from Charles River Laboratories (Wilmington, Mass.). Approximately 5×10^6 tumor cells in Matrigel™ were implanted subcutaneously (s.c.) into the hind flank region of mice. Dosing began when tumors reached an average size of 200 mm^3. Caliper measurements were performed twice weekly to estimate tumor volume using the formula: (a×b^2)×0.5, where “a” is the largest diameter and “b” is the length perpendicular to the diameter. […]

Structure (SMILES): CNC(=O)c1cc(Oc2ccc(NC(=O)Nc3ccc(Cl)c(C(F)(F)F)c3)cc2)ccn1 [Sorafenib, reference compound]
- tumor growth inhibition ([1]; sorafenib 100 mg/kg every day): 69%
- Tumor Volume ([1]; sorafenib 100 mg/kg oral every day): 887±196 mm^3
- median plasma MIA concentration ([1]; sorafenib 100 mg/kg, plasma 4 hr after last dose on Day 20): 28.9 ng/mL
- tumor growth inhibition, significance vs. vehicle [2]: did not cause significant tumor growth inhibition
- Tumor Volume ([2]; MEXF 1341, sorafenib 100 mg/kg oral every day): 1338±264 mm^3
- effect on plasma MIA levels ([2]; MEXF 1341, sorafenib 100 mg/kg, Day 20, P>0.17): reduced plasma MIA levels

Structure (SMILES): Cn1c(Nc2ccc(C(F)(F)F)cc2)nc2cc(Oc3ccnc(-c4ncc(C(F)(F)F)[nH]4)c3)ccc21 [CHIR-265, {1-Methyl-5-[2-(5-trifluoromethyl-1H-imidazol-2-yl)-pyridin-4-yloxy]-1H-benzoimidazol-2-yl}-(4-trifluoromethyl-phenyl)-amine]
- Tumor Volume ([1]; CHIR-265 100 mg/kg oral, 100 mg/kg): 19±2.9 mm^3
- Tumor Volume ([1]; CHIR-265 (10 mg/ml) per table head, 10 mg/kg in text, oral, 10 mg/kg): 58±15.2 mm^3
- tumor growth inhibition ([1]; CHIR-265 at both doses (100 and 10 mg/kg)): > 97%
- tumor growth inhibition, significance vs. vehicle [2]: did not cause significant tumor growth inhibition
- Tumor Volume ([2]; MEXF 1341, CHIR-265 100 mg/kg oral, 100 mg/kg): 575±214 mm^3
- Tumor Volume ([2]; MEXF 1341, CHIR-265 (10 mg/ml) per table head, 10 mg/kg in text, oral, 10 mg/kg): 1190±291 mm^3
- reduction in plasma MIA ([2]; MEXF 1341, both CHIR-265 treatments (100 and 10 mg/kg), Day 20, P<0.02): 2 fold
- MIA plasma concentration (median) ([3]; CHIR-265 100 mg/kg oral, day 3, baseline 27.8): 10.4 ng/mL
- reduction in MIA concentration vs. baseline ([3]; CHIR-265 100 mg/kg, day 3): 62%
- tumor regression ([3]; CHIR-265 100 mg/kg, day 3): 29%
- MIA plasma concentration ([3]; CHIR-265 100 mg/kg, day 13): undetectable
- tumor regression as compared to initial tumor volume (250 mm^3) ([4]; CHIR-265 100 mg/kg oral every other day, after four doses): ~50%
- tumor growth inhibition compared to vehicle treatment ([4]; CHIR-265 100 mg/kg oral every other day, day 10): 70%
- Tumor Volume ([4]; CHIR-265 100 mg/kg oral every other day, day 10, mean ± SE, 100 mg/kg): 133±14.1 mm^3
- vehicle median MIA concentration fold higher than CHIR-265 treated mice ([4]; CHIR-265 100 mg/kg, day 10, n=5/group): 17 fold
- MIA plasma levels ([4]; after four doses of CHIR-265 100 mg/kg, plasma 48 h post fourth dose (day 10)): ~4 ng/mL

Structure (SMILES): CN1CCN(c2ccc3[nH]c(-c4c(N)c5c(F)cccc5[nH]c4=O)nc3c2)CC1 [CHIR-258, 4-amino-5-fluoro-3-[5-(4-methylpiperazin-1-yl)-1H-benzimidazol-2-yl]quinolin-2(1H)-one]
- change in MIA plasma concentration vs. vehicle ([3]; CHIR-258 60 mg/kg oral, day 3, 60 mg/kg): statistically significant lower levels; also recorded: statistically significant decrease in MIA plasma concentration
- reduction in MIA levels compared to baseline ([3]; CHIR-258 60 mg/kg oral, day 13): 63%
- effect on tumor volume / tumor burden vs. vehicle ([3]; CHIR-258 60 mg/kg oral, from day 8, 60 mg/kg): tumor growth inhibition, however regressions were not observed; also recorded: tumor growth inhibition; also recorded: statistically significant reduction in tumor burden
- effect on tumor volume vs. vehicle ([5]; CHIR-258 30 mg/kg or 80 mg/kg oral once daily, by day 8, P<0.03): significant tumor growth inhibition
- plasma MIA levels ([5]; both CHIR-258 groups (30 and 80 mg/kg), day 8 and subsequent time points): not detectable

Source: patent US8288087B2, “Use of melanoma inhibitory activity (MIA) protein as an early indicator for therapeutic response in melanoma” (Novartis AG, priority 2006, dated 2012)
